Patent US20260184707A1, “PHARMACEUTICAL COMPOUNDS FOR THE TREATMENT OF COMPLEMENT MEDIATED DISORDERS” (ALEXION PHARMACEUTICALS, INC., priority 2022, published 2026)

target: T1, Human complement C1s enzyme (Homo sapiens, UniProt P09871); test: Human C1s enzyme assay; type: biochemical; conditions: human complement C1s enzyme 1.16 nM, substrate Z-L-Lys-SBzl, A405; read-out: IC50 (Stars)
T1 construct: purified from human serum, Complement Technology, Inc; purchased Complement Technology, Inc; host or cells: human serum (plasma-derived native protein)
T1 sequence (P09871 438-688 limits assumed): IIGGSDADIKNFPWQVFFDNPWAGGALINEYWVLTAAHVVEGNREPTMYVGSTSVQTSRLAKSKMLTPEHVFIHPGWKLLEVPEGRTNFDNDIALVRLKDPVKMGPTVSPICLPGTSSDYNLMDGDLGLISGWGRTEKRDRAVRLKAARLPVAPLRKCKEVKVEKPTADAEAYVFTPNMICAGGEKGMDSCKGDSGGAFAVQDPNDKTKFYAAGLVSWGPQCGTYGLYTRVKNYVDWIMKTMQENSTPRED
T1 sequence (P09871 16-437 partner limits assumed): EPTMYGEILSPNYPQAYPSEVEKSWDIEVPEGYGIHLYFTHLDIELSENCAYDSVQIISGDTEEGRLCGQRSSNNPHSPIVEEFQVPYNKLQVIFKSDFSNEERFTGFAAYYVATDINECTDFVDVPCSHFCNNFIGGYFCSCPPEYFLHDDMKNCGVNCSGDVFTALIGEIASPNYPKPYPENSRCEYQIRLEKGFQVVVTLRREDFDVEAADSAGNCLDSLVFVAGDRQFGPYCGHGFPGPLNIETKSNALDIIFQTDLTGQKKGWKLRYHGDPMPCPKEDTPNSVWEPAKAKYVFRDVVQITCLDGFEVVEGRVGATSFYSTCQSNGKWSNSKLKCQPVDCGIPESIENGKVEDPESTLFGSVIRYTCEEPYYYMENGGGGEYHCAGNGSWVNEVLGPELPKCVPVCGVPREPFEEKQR
In short: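 Serum-purified human C1s (1.16 nM final) preincubated 5 min at room temperature with compound in 50 mM Tris, 1 M NaCl, pH 7.5. Z-L-Lys-SBzl and DTNB added at 100 μM each; A405 recorded every 30 s. IC50 from nonlinear regression of reaction rates versus compound concentration.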

| Structure (SMILES) | IC50 |
| --- | --- |
| COc1c(NC(=O)c2ccc(-c3ccccc3)s2)ccc(-c2ccccc2)c1CC(=O)NCc1cc2cnccc2[nH]1 [Compound 129, N-(2-(2-(((1H-Pyrrolo[3,2-c]pyridine-2-yl)methyl)amino)-2-oxoethyl)-3-methoxy-[1,1′-biphenyl]-4-yl)-5-phenylthiophene-2-carboxamide] | > 1000 nM |
| C[C@@H]1CN(c2ncc(N[C@H](C)c3ccc4oc5ccccc5c4c3)c(=O)n2CC(=O)NCc2cc3cnccc3[nH]2)C[C@@H](C)O1 [Compound 355, N-((1H-pyrrolo[3,2-c]pyridin-2-yl)methyl)-2-(5-(((R)-1-(dibenzo[b,d]furan-2-yl)ethyl)-amino)-2-((2R,6R)-2,6-dimeth-ylmorpholino)-6-oxopyrimidin-1(6H)-yl)acetamide] | 100 to 1000 nM |
| O=C(Cn1c(N2CCOCC2)ncc(NC(=O)c2ccc(Oc3ccccc3)cc2)c1=O)NCc1cc2cnccc2[nH]1 [Compound 410, N-(1-(2-(((1H-pyrrolo[3,2-c]pyridin-2-yl)methyl)amino)-2-oxoethyl)-2-morpholino-6-oxo-1,6-dihydropyrimidin-5-yl)-4-phenoxybenzamide] | < 100 nM |
| O=C(Cn1c(N2CC(F)(F)C2)ncc(NCc2ccc3oc4ccccc4c3c2)c1=O)NCc1cc2cnccc2[nH]1 [Compound 281, N-((1H-pyrrolo[3,2-c]pyridin-2-yl)methyl)-2-(5-((dibenzo [b,d]furan-2-ylmethyl)amino)-2-(3,3-difluoroazetidin-1-yl)-6-oxopyrimidin-1(6H)-yl)acet-amide] | < 100 nM |
| C[C@@H](Nc1cnc(N2CC(F)C2)n(CC(=O)NCc2cc3cnccc3[nH]2)c1=O)c1ccc2oc3ccccc3c2c1 [Compound 368, (R)-N-((1H-pyrrolo[3,2-c]pyridin-2-yl)methyl)-2-(5-((1-(dibenzo[b,d]furan-2-yl)ethyl)-amino)-2-(3-fluoroazetidin-1-yl)-6-oxopyrimidin-1(6H)-yl)-acetamide] | > 1000 nM |
| CO[C@@H]1CO[C@H]2[C@@H]1OC[C@H]2Oc1ccc(CCCNc2cnc(-c3ccccc3)n(CC(=O)NCc3cc4cnccc4[nH]3)c2=O)cc1 [Compound 192, N-((1H-pyrrolo[3,2-c]pyridine-2-yl)methyl)-2-(5-((3-(4-(((3R,3aR,6R,6aR)-6-methoxyhexahydrofuro[3,2-b]furan-3-yl)oxy)phenyl)propyl)amino)-6-oxo-2-phenylpyrimidin-1(6H)-yl)acetamide] | < 100 nM |
| C[C@@H](Nc1cnc(N2CCC(O)C2)n(CC(=O)NCc2cc3cnccc3[nH]2)c1=O)c1ccc2oc3ccccc3c2c1 (stereo partly drawn) [Compound 369, N-((1H-pyrrolo[3,2-c]pyridin-2-yl)methyl)-2-(5-(((R)-1-(dibenzo[b,d]furan-2-yl)ethyl)-amino)-2-(3-hydroxypyrroli-din-1-yl)-6-oxopyrimidin-1(6H)-yl)acetamide] | 100 to 1000 nM |
| O=C(Cn1c(-c2ccccc2)ncc(NC(=O)OCc2ccccc2)c1=O)NCc1cc2cnccc2[nH]1 [Compound 31, benzyl (1-(2-(((1H-pyrrolo[3,2-c]pyridin-2-yl)methyl)amino)-2-oxoethyl)-6-oxo-2-phenyl-1,6-dihydropyrimidin-5-yl)-carbamate] | > 1000 nM |
| C[C@@H](Nc1cnc(N2CCN(C(=O)C3CC3)CC2)n(CC(=O)NCc2cc3cnccc3[nH]2)c1=O)c1ccc2oc3ccccc3c2c1 [Compound 468, (R)-N-((1H-pyrrolo[3,2-c]pyridin-2-yl)methyl)-2-(2-(4-(cyclopropanecarbonyl)piper-azin-1-yl)-5-((1-(dibenzo[b,d]furan-2-yl)ethyl)amino)-6-oxopyrimidin-1(6H)-yl)acet-amide] | 100 to 1000 nM |
| O=C(Cn1c(-c2ccc(OCCOc3ccc(F)cc3)cc2)ncc(NCc2ccc3oc4ccccc4c3c2)c1=O)NCc1cc2cnccc2[nH]1 [Compound 154, N-((1H-pyrrolo[3,2-c]pyridine-2-yl)methyl)-2-(5-((dibenzo[b,d]furan-2-ylmethyl)amino)-2-(4-(2-(4-fluorophenoxy)ethoxy)phenyl)-6-oxopyrimidin-1(6H)-yl)acetamide] | < 100 nM |
| O=C(Cn1c(-c2ccccc2)ncc(NCc2ccc3oc4ccccc4c3c2)c1=O)NCc1cc2cnccc2s1 [Compound 141, 2-(5-((Dibenzo[b,d]furan-2-ylmethyl)amino)-6-oxo-2-phenylpyrimidin-1(6H)-yl)-N-(thieno[3,2-c]pyridin-2-ylmethyl)acetamide] | < 100 nM |

The next lines start with the values.

| IC50 | Structure (SMILES) |
| --- | --- |
| < 100 nM | CP(=O)(O)c1ccc(-c2ncc(NCCCc3ccccc3)c(=O)n2CC(=O)NCc2cc3cnccc3[nH]2)cc1 [Compound 68, (4-(1-(2-(((1H-pyrrolo[3,2-c]pyridine-2-yl)methyl)amino)-2-oxoethyl)-6-oxo-5-((3-phenylpropyl)amino)-1,6-dihydropyrimidin-2-yl)phenyl)(methyl)phosphinic acid] |
| < 100 nM | Cc1cccc(-c2ncc(N[C@H](C)c3ccc4oc5ccccc5c4c3)c(=O)n2CC(=O)NCc2cc3cnccc3[nH]2)c1F [Compound 434, (R)-N-((1H-pyrrolo[3,2-c]pyridin-2-yl)methyl)-2-(5-((1-(dibenzo[b,d]furan-2-yl)ethyl)amino)-2-(2-fluoro-3-methylphenyl)-6-oxopyr-imidin-1(6H)-yl)acetamide] |
| < 100 nM | O=C(Cn1c(-c2ccccc2)ncc(NCCCOc2ccccc2)c1=O)NCc1cc2cnccc2[nH]1 [Compound 7, N-((1H-pyrrolo[3,2-c]pyridin-2-yl)methyl)-2-(6-oxo-5-((3-phenoxypropyl)amino)-2-phenylpyrimidin-1(6H)-yl)-acetamide] |
| < 100 nM | O=C(Cn1c(-c2ccccc2)ncc(NCCNC(=O)c2ccc3c(c2)-c2ccccc2C3(F)F)c1=O)NCc1cc2cnccc2[nH]1 [Compound 36, N-(2-((1-(2-(((1H-pyrrolo[3,2-c]pyridin-2-yl)methyl)amino)-2-oxoethyl)-6-oxo-2-phenyl-1,6-dihydropyrimidin-5-yl)-amino)ethyl)-9,9-difluoro-9H-fluorene-3-carboxamide] |
| < 100 nM | O=C(Cn1c(-c2ccc(Cl)cc2)ncc(NCc2ccc3oc4ccccc4c3c2)c1=O)NCc1cc2cnccc2[nH]1 [Compound 118, N-((1H-pyrrolo[3,2-c]pyridin-2-yl)methyl)-2-(2-(4-chloro-phenyl)-5-((dibenzo[b,d]furan-2-ylmethyl)amino)-6-oxopyr-imidin-1(6H)-yl)acetamide] |
| < 100 nM | O=C(Cn1c(-c2ccccc2)ncc(NC(=O)c2ccc(-c3ccccc3)cc2)c1=O)NCc1cc2cnccc2[nH]1 [Compound 29, N-(1-(2-(((1H-pyrrolo[3,2-c]pyridin-2-yl)methyl)amino)-2-oxoethyl)-6-oxo-2-phenyl-1,6-dihydropyrimidin-5-yl)-[1,1′-biphenyl]-4-carboxamide] |
| < 100 nM | CS(=O)(=O)c1ccc(-c2ncc(NCCCc3ccccc3)c(=O)n2CC(=O)NCc2cc3cnccc3[nH]2)cc1 [Compound 69, N-((1H-pyrrolo[3,2-c]pyridine-2-yl)methyl)-2-(2-(4-(methylsulfonyl)phenyl)-6-oxo-5-((3-phenylpropyl)amino)pyrimidin-1(6H)-yl)acetamide] |
| < 100 nM | O=C(Cn1c(-c2ccccc2)ncc(NCCCc2ccc(C(=O)c3ccccc3)cc2)c1=O)NCc1cc2cnccc2[nH]1 [Compound 41, N-((1H-pyrrolo[3,2-c]pyridin-2-yl)methyl)-2-(5-((3-(4-benzo-ylphenyl)propyl)amino)-6-oxo-2-phenylpyrimidin-1(6H)-yl)-acetamide] |
| < 100 nM | O=C(Cn1c(-c2ccccc2)ncc(NC(=O)c2ccc(Oc3ccc(C(F)(F)F)cc3)cc2)c1=O)NCc1cc2cnccc2[nH]1 [Compound 50, N-(1-(2-(((1H-pyrrolo[3,2-c]pyridin-2-yl)methyl)amino)-2-oxoethyl)-6-oxo-2-phenyl-1,6-dihydropyrimidin-5-yl)-4-(4-(trifluoromethyl)phenoxy)-benzamide] |
| < 100 nM | O=C(Cn1c(-c2ccc(OCc3ccccn3)cc2)ncc(NC(=O)c2ccc(-c3ccccc3)cc2)c1=O)NCc1cc2cnccc2[nH]1 [Compound 225, N-[6-Oxo-1-[2-oxo-2-(1H-pyrrolo[3,2-c]pyridine-2-ylmethylamino)ethyl]-2-[4-(2-pyridylmethoxy)phenyl]pyrimidin-5-yl]-4-phenyl-benzamide] |
| < 100 nM | C[C@@H](Nc1ncc(N2CCOCC2)n(CC(=O)NCc2cc3cnccc3[nH]2)c1=O)c1ccc2oc3ccccc3c2c1 [Compound 407, (R)—N-((1H-pyrrolo[3,2-c]pyridine-2-yl)methyl)-2-(3-((1-(dibenzo[b,d]furan-2-yl)ethyl)amino)-6-morpholino-2-oxopyrazin-1(2H)-yl)acetamide] |
| < 100 nM | O=C(Cn1cncc(NCc2nnc(-c3ccccc3)s2)c1=O)NCc1cc2cnccc2[nH]1 [Compound 485, N-((1H-pyrrolo[3,2-c]pyridin-2-yl)methyl)-2-(6-oxo-5-(((5-phenyl-1,3,4-thiadiazol-2-yl)-methyl)amino)pyrimidin-1(6H)-yl)acetamide] |
